PMC4061319 (Biotechnology for Biofuels, 2014)

Assays:
[1] = target: T1, SdCBP (cellobiose phosphorylase from Saccharophagus degradans) (Saccharophagus degradans, UniProt Q21L49); test: initial rates of phosphorolysis from continuous G1P colorimetric assay, non-linear regression; type: biochemical; details: no xylose; 5 mM inorganic phosphate, 20 mM MES pH 6.0, 30°C, 10 nM enzyme
T1 construct: gene cep94A; CBP is a homodimer

[2] = target: T1, SdCBP (cellobiose phosphorylase from Saccharophagus degradans); test: competition assay of cellobiose phosphorolysis at […] xylose; type: biochemical; details: mixed inhibitor versus cellobiose; 5 mM inorganic phosphate, 20 mM MES pH 6.0, 30°C

T1 sequence (Q21L49 entry or part of it): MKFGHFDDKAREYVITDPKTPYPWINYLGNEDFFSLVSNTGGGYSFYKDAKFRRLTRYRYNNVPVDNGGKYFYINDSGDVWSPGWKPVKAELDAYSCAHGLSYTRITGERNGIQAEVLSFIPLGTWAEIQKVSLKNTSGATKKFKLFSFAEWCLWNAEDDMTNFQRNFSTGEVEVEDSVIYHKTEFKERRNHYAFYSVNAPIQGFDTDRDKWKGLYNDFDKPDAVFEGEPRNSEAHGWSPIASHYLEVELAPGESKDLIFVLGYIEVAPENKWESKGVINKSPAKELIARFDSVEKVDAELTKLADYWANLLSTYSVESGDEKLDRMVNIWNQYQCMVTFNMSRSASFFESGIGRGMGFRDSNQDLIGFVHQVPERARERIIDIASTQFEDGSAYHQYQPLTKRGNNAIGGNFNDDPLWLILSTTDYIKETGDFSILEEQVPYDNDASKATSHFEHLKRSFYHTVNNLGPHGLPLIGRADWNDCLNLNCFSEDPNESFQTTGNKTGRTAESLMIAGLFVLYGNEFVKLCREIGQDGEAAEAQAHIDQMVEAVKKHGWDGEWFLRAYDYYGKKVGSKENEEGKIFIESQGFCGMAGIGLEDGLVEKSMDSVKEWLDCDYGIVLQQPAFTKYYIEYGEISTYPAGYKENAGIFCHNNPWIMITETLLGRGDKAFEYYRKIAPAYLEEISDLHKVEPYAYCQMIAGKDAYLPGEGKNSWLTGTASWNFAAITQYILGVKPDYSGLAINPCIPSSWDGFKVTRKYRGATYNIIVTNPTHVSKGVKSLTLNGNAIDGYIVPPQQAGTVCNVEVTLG

| Structure (SMILES) | KM,app [1] | competition assay of cellobiose phosphorolysis at 0, 2.5 and 5 mM xylose [2] |
| --- | --- | --- |
| OC[C@H]1O[C@@H](O[C@H]2[C@H](O)[C@@H](O)C(O)O[C@@H]2CO)[C@H](O)[C@@H](O)[C@@H]1O (some centres unmarked) [cellobiose] | Initial rates of cellobiose phosphorolysis were calculated from the amount of G1P produced |  |
| OC1OC[C@@H](O)[C@H](O)[C@H]1O (some centres unmarked) [xylose] |  | identifying xylose as a mixed-inhibitor for the cellobiose phosphorolysis reaction |
